Entries after “also recorded” stand apart in the source; their conditions may differ.
Test system: CYH2-PTC-FF reporter
Assay: dual luciferase (Firefly/Renilla) CYH2-PTC reporter assay
Format: cell-based, yeast
Excerpt: FIG. 1: Schematic representation of comparative dual luciferase PTC assay as employed here. Firefly (FF) and Renilla (R) in wild type (WT) yeast cells are compared with luminescence counts of a PTC-FF reporter (e.g. the CYH2-PTC-FF reporter) in wild type yeast cells, wherein a PTC reduces the FF protein and thus luminescence.
FIG. 3: Gene dosage of ribosomal proteins modulates level of protein expression from PTC mRNAs. […] In FIG. 3B, a modulation of the expression of the FF/FF(PTC) reporter in selected ribosomal protein deletion strains is shown. In FIG. 3C, a modulation of expression of the LAMB3-FF/LAMB3(PTC)-FF reporter in selected ribosomal protein deletion strains is shown.
The yeast CYH2 was amplified from the genomic yeast DNA with the primers LG 751 and LG 752. The ATG of the CYH2 was left out to be in frame with the promoter and the firefly luciferase reporter. The 1.0 kb PCR product and pLBK 162 were digested with KpnI and SacI. The CYH2-PTC reporter was ligated in pLBK 162, thus generating pLBK 165 (FIG. 5f). […]
The reporter plasmids are to be transformed in the WT and ribosomal protein deletion strains. […] For testing the different levels of read-through a PTC containing reporter plasmid (e.g. pLBK 165) and for internal standard pLBK 164 are used. […]

Substance: gentamycin
- expression level of the CYH2-PTC-FF reporter (RPL10/ΔRPL10 gene dosage reduced yeast strain, gentamycin added): not strong or not present at all; also recorded: does not contribute to alteration
- CYH2-PTC-FF level (Firefly signal) (WT yeast strain (BY4743), gentamycin added as control): the signal increases; also recorded: induce an increase

— patent publication US11959145B2, “Method for identifying interventions that control the translational activity of ribosomal proteins in differential mRNA expression” (priority 2009, dated 2024)
